Laboratory results published in patent publication EP1304107A2, “Use of oxazolidinines derivatives for treating psoriasis” (PHARMACIA & UPJOHN COMPANY, priority 1997, dated 1999).

Tests used:
psoriasis = assay: Case report: treatment of a patient with chronic psoriasis (EXAMPLE A); format: in vivo, human; conditions: person
Method: They had chronic psoriatic lesions of both elbows, groin, left leg, right leg, and lower back. The lesions were treated in the past with coal tar and topical steroids but not UV light. They were allergic to the excipients in the steroidal topical preparations.
After six months it had returned to the pretreatment state.

arthritis = assay: Case report: patient with arthritis treated for pneumonia (EXAMPLE B); format: in vivo, human; conditions: person (Subject No 1912); 625 mg twice daily intravenously for 3 days, then 8 days oral at the same dose; taking no medications at follow up
[1] = after 625 mg twice daily for fourteen days

With `CC(=O)NC[C@H]1CN(c2ccc(N3CCOCC3)c(F)c2)C(=O)O1` [EXAMPLE 2, (S)-N-[[3-[3-Fluoro-4-(4-morpholinyl)phenyl]-2-oxo-5-oxazolidinyl]methyl]acetamide] the “improvement in their psoriasis” value (psoriasis; 625 mg twice daily for fourteen days (IV five days, then orally nine days), onset as soon as they started taking the medication) was “immediate improvement”, the “clearing of the psoriasis” value (psoriasis; 625 mg twice daily for fourteen days, no other psoriasis treatment, from the time they took the medication) was “complete clearing” and the “time until psoriasis gradually began to return” value (psoriasis; [1]) was “three”. The “time until psoriasis had returned to the pretreatment state” value (psoriasis; [1]) was “six” and the “arthritis status stated by the patient at long term follow up” value (arthritis) was “arthritis was gone”.
